Measurements as given in ChEMBL document CHEMBL5291721, “A preclinical secondary pharmacology resource illuminates target-adverse drug reaction associations of marketed drugs” (Nat Commun, 2023).

Legend:
B1 bradykinin receptor = target: T1, B1 bradykinin receptor (Homo sapiens, UniProt P46663)
T1 sequence (P46663 whole entry): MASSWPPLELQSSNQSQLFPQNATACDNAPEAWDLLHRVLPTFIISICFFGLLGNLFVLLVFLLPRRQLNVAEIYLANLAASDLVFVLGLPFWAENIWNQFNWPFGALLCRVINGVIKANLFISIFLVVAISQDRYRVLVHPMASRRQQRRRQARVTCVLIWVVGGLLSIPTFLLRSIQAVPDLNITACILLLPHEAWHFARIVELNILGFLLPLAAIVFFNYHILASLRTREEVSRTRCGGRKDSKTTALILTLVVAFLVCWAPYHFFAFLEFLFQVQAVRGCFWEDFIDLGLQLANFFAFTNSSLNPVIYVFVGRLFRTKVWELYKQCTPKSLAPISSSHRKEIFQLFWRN

[1] = target: T2, Corticotropin-releasing factor receptor 2 (Homo sapiens, UniProt Q13324)
T2 sequence (Q13324 whole entry): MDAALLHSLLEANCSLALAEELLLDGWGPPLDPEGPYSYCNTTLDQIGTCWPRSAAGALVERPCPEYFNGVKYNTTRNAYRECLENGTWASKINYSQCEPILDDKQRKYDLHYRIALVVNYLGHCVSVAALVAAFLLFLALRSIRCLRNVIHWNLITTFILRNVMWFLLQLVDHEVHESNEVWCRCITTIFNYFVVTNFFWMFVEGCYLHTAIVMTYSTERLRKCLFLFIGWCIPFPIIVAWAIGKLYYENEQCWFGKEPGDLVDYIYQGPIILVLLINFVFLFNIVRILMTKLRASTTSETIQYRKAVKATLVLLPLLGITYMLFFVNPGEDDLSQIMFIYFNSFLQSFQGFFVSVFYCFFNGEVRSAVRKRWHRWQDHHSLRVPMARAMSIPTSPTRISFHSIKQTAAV

[2] = target: T3, Endothelin receptor type B (Homo sapiens, UniProt P24530)
T3 sequence (P24530 whole entry): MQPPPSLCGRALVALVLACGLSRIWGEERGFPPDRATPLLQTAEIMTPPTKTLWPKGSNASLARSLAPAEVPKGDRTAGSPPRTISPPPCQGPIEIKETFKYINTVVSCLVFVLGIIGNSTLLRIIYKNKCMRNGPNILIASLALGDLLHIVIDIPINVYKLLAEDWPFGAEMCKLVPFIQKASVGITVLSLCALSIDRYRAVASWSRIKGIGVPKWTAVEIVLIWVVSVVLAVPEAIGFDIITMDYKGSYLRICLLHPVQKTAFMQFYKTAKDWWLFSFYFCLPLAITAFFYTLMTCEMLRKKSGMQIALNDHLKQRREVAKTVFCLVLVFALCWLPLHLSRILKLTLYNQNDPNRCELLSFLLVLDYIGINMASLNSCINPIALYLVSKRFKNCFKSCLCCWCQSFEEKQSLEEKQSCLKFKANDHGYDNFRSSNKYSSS

[3] = target: Gamma-aminobutyric acid receptor subunit alpha-1 (Rattus norvegicus, UniProt P62813)
Sequence of Gamma-aminobutyric acid receptor subunit alpha-1 (P62813 whole entry): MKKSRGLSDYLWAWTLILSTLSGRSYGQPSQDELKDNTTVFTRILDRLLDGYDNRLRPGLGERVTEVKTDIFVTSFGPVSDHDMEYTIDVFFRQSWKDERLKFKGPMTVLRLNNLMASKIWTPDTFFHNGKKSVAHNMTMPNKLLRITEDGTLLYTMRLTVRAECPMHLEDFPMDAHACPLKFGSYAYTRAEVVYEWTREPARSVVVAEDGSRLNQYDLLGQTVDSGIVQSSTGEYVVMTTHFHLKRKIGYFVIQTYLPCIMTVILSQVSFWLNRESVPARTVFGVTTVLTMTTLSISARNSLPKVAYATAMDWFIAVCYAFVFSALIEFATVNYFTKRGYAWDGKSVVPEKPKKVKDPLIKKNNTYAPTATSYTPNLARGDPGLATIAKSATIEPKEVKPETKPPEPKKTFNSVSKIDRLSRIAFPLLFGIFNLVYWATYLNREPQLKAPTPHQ

[4] = target: 5-hydroxytryptamine receptor 2B (Homo sapiens, UniProt P41595)
Sequence of 5-hydroxytryptamine receptor 2B (P41595 whole entry): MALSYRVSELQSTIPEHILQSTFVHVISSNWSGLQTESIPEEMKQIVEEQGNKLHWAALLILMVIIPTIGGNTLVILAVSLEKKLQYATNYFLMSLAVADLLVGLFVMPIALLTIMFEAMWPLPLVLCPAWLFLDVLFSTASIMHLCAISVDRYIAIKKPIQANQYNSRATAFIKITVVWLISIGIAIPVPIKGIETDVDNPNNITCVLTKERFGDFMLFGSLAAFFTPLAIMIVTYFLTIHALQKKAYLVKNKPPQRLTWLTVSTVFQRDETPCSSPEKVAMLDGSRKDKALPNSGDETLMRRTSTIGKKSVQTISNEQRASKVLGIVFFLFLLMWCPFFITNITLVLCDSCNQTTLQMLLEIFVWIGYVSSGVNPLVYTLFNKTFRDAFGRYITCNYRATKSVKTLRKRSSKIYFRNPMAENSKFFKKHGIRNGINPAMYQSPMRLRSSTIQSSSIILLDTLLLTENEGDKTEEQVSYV

[5] = target: 5-hydroxytryptamine receptor 6 (Homo sapiens, UniProt P50406)
Sequence of 5-hydroxytryptamine receptor 6 (P50406 whole entry): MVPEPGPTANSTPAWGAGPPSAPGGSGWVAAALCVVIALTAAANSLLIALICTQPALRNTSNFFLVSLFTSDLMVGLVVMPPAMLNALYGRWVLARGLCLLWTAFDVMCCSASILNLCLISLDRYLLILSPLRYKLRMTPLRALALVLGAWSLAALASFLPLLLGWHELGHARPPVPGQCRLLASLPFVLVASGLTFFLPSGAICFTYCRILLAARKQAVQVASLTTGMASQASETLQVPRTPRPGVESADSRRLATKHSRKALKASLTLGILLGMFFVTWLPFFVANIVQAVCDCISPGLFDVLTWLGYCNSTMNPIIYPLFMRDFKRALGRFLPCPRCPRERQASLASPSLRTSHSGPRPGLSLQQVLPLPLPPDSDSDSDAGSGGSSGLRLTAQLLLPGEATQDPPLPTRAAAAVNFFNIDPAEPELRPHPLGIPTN

[6] = target: T4, Neuropeptide Y receptor type 2 (Homo sapiens, UniProt P49146)
T4 sequence (P49146 whole entry): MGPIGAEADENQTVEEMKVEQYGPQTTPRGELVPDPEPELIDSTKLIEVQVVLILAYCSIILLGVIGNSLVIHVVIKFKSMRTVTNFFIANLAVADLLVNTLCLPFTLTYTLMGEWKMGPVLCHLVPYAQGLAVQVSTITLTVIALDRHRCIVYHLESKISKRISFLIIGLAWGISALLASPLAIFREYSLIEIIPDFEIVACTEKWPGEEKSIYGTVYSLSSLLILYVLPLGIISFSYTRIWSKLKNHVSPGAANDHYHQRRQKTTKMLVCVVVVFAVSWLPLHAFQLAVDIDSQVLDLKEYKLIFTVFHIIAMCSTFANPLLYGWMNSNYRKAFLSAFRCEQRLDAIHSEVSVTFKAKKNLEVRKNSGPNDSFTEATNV

D(1A) dopamine receptor = D(1A) dopamine receptor (Homo sapiens, UniProt P21728)
Sequence of D(1A) dopamine receptor (P21728 whole entry): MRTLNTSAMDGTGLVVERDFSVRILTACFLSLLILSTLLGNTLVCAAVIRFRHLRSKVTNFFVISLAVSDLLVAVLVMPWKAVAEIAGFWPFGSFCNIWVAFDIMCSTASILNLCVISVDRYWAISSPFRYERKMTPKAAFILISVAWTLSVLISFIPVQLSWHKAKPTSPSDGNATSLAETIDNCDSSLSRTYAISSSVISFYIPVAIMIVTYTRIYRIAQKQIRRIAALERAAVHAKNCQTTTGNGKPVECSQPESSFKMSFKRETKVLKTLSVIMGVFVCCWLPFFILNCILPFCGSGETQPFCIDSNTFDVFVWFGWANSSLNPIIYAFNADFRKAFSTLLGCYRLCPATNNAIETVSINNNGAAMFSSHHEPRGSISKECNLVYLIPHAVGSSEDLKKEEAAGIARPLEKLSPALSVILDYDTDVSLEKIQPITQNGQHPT

[7] = target: T5, Alpha-1A adrenergic receptor (Homo sapiens, UniProt P35348)
T5 sequence (P35348 whole entry): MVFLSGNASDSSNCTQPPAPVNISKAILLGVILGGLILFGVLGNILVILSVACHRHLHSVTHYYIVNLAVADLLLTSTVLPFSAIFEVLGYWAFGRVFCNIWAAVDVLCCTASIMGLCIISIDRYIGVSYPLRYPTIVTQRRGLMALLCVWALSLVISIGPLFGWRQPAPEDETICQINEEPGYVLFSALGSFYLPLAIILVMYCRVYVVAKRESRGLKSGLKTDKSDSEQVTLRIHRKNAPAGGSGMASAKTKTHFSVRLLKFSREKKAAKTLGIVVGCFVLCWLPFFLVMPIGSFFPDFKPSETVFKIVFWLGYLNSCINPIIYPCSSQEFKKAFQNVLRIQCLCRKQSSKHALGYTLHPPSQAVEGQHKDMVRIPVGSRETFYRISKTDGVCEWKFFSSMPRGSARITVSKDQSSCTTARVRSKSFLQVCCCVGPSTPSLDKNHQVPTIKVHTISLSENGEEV

[8] = target: Gamma-aminobutyric acid receptor subunit alpha-1/alpha-2/beta-2/gamma-2 (Homo sapiens, UniProt P14867+P18507+P47869+P47870); format: functional, cell-based
Sequence of Gamma-aminobutyric acid receptor subunit alpha-1/alpha-2/beta-2/gamma-2 (P14867 whole entry): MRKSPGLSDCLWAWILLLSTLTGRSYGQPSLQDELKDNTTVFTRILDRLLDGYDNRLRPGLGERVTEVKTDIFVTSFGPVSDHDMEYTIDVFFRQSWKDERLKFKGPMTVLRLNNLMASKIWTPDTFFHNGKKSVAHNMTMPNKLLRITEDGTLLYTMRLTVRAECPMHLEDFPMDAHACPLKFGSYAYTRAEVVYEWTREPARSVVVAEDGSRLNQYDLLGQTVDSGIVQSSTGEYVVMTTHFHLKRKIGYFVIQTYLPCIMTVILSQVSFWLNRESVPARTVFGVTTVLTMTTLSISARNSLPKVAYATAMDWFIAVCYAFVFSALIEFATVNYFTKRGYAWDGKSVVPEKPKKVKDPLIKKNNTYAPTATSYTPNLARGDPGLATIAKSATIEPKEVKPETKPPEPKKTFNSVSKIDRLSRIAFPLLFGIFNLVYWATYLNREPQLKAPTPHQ
Sequence of Gamma-aminobutyric acid receptor subunit alpha-1/alpha-2/beta-2/gamma-2 (P47870 whole entry): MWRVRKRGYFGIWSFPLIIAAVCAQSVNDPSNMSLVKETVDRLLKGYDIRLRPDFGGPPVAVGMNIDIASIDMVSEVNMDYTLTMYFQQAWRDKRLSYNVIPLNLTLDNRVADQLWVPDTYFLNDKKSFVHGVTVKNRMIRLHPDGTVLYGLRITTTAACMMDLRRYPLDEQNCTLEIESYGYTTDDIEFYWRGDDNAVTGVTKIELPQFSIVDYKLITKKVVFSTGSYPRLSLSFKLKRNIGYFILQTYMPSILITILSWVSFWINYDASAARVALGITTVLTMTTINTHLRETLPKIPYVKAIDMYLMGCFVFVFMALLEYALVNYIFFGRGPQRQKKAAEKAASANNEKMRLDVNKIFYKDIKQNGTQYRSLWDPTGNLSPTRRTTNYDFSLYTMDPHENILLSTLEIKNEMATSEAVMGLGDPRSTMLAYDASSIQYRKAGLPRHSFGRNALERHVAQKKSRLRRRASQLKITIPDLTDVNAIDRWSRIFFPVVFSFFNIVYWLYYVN
Sequence of Gamma-aminobutyric acid receptor subunit alpha-1/alpha-2/beta-2/gamma-2 (P18507 whole entry): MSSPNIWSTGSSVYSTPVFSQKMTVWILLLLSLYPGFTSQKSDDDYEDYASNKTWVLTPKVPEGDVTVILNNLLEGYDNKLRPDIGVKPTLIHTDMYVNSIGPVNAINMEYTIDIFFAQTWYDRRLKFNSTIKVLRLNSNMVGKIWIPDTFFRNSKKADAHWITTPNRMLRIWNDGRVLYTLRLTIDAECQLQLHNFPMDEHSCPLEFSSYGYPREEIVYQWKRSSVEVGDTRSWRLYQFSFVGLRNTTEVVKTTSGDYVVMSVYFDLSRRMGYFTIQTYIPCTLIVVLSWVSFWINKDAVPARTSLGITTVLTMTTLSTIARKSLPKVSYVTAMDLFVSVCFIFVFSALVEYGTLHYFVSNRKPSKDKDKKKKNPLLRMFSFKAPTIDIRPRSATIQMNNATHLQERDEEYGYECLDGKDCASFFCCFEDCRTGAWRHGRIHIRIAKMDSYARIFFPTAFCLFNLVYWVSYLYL
Sequence of Gamma-aminobutyric acid receptor subunit alpha-1/alpha-2/beta-2/gamma-2 (P47869 whole entry): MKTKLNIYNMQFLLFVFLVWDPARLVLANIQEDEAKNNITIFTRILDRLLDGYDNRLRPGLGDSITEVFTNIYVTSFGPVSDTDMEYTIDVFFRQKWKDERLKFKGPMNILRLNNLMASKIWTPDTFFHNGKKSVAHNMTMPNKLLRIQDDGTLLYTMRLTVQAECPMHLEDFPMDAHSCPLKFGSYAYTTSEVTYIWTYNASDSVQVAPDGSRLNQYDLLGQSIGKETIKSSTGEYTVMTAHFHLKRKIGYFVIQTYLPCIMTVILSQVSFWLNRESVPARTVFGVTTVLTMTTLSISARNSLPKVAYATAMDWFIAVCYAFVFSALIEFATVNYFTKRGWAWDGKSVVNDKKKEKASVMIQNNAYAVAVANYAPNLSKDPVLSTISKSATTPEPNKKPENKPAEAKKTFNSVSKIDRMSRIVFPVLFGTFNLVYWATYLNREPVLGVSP
Also: assay procedure not described here.

SMILES	AC50 (B1 bradykinin receptor)	AC50 [1]	AC50 [2]	AC50 [3]	AC50 [4]	AC50 [5]	AC50 [6]	AC50 (D(1A) dopamine receptor)	AC50 [7]	AC50 [8]
C[C@H]1O[C@H](O[C@H]2[C@H](O)[C@@H](O)[C@@H](O[C@H]3[C@H](O)[C@@H](O)C(O)O[C@@H]3CO)O[C@@H]2CO)[C@H](O)[C@@H](O)[C@@H]1N[C@H]1C=C(CO)[C@@H](O)[C@H](O)[C@H]1O (stereo not given in full) [ACARBOSE]	> 30 µM	> 30 µM	> 30 µM	> 30 µM	> 10 µM	> 10 µM	> 30 µM	> 10 µM	> 10 µM	–
C#C[C@]1(O)CC[C@H]2[C@@H]3CCc4cc(O)ccc4[C@H]3CC[C@@]21C [ETHINYL ESTRADIOL]	> 30 µM	> 30 µM	> 30 µM	> 30 µM	> 30 µM	> 30 µM	> 30 µM	> 10 µM	> 10 µM	–
CCc1ccc(CCOc2ccc(CC3SC(=O)NC3=O)cc2)nc1 (stereo not given) [PIOGLITAZONE]	> 30 µM	> 30 µM	> 30 µM	> 30 µM	> 10 µM	> 10 µM	> 30 µM	> 10 µM	> 10 µM	–
O=C(CCCCCCC(=O)Nc1ccccc1)NO [VORINOSTAT]	> 10 µM	–	> 10 µM	–	> 10 µM	> 10 µM	> 10 µM	> 10 µM	> 10 µM	> 30 µM
